One block for each compound: values may come before it. Starred links: 1 amine or outer side, 2 acyl side, 3 side chain; linkers in the order of their positions; H or OH if unused. Positions of bridges follow the written chain, without caps; N, C: chain ends. Residues, ends and D or L forms follow the SMILES beside them. mXylylene = c1cc(C[*:1])cc(C[*:2])c1
Legend:
Cathepsin S [1] = target: T1, Cathepsin S (Homo sapiens, UniProt P25774); assay: in vitro fluorescence-based protease inhibition assay, cathepsin S; format: biochemical
Excerpt: (§1) Thus, the present invention includes a series of potent and highly specific α-helical inhibitors for papain family cysteine proteases. […] These short α-helical peptidomimetic inhibitors are modeled after the natural pro-domain sequence but contain a cysteine substitution at specific residues in i,i+4 positions, as shown in FIG. 2B. These cysteine residues are used for stabilization of the helix utilizing an appropriate linker (Muppidi, et al., 2011, Chem Commun (Camb) 47:9396-9398). After synthesis, each inhibitor was tested against its respective protease using an in vitro fluorescence-based assay. For each enzyme, at least one inhibitor was identified that is relatively potent and highly specific for its individual protease. These inhibitors can be modified or otherwise optimized to attain higher potency and selectivity through identification of key interactions between the inhibitor and the active site amino acid residues. Such optimization involves visual examination of the protease crystal structure, and substitution with either non-natural or natural amino acids to exploit possible crucial non-covalent protein ligand interactions, such as hydrogen bond, electrostatic, hydrophobic, and Van der Waals interactions.
Target sequence in this assay (P25774 115-331, species assumed): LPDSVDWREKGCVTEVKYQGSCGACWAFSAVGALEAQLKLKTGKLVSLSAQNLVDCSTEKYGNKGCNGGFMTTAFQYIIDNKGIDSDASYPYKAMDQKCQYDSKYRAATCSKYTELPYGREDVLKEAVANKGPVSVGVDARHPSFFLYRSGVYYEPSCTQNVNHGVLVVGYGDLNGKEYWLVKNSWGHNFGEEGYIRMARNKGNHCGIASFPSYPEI

Cathepsin S [2] = target: T1, Cathepsin S; assay: Ki (µM) (Cathepsin S)
Excerpt: (§2) Table printed on a drawing sheet, FIGURES 2A & 2B
Head of the field: Ki (µM) (Cathepsin S)
(§3) The patent's description of the figure: FIG. 2, comprising FIGS. 2A-2C, illustrate inhibitors of the present invention. FIG. 2A depicts a list of parent and lead cysteine protease inhibitors and their Ki values The bold ‘C’ represents the cysteine linked at the i,i+4 position. […] FIG. 2B is a schematic representation of linked helical peptidomimetics. α,α′-Dibromo-meta-xylene is the i,i+4 linker. FIG. 2C illustrates circular dichroism spectra of unlinked (middle) and linked (right) peptidomimetics (key at left) in 50 mM Tris-HCl buffer (pH 7.5) and 40% trifluoroethanol (TFE). α-Helical stabilization substantially increases helicity in solution.
(§4) First copying reader's note: Bold C residues and underlined sequences mark the linked (stapled) peptides; the meanings of N/A and NT are not printed on the sheet.
Where the first naming reader finds the target: head: Ki (µM) (Cathepsin S)
Target sequence in this assay (P25774 115-331 limits assumed): as the sequence (P25774 115-331, species assumed) above

Cathepsin K [3] = target: Cathepsin K (Homo sapiens, UniProt P43235); assay: Ki (µM) (Cathepsin K)
Excerpt: as §2
Head of the field: Ki (µM) (Cathepsin K)
as §3, §4
Where the first naming reader finds the target: head: Ki (µM) (Cathepsin K)

Calpain-1 = Calpain-1 (Homo sapiens, UniProt P07384); assay: Ki (µM) (Calpain)
Excerpt: as §2
Head of the field: Ki (µM) (Calpain)
as §3, §4

Calpain (Calpain-1) = target: T2, Calpain (Calpain-1) (Homo sapiens, UniProt P07384); assay: in vitro fluorescence-based protease inhibition assay, calpain; format: biochemical
T2 sequence (P07384 1-714): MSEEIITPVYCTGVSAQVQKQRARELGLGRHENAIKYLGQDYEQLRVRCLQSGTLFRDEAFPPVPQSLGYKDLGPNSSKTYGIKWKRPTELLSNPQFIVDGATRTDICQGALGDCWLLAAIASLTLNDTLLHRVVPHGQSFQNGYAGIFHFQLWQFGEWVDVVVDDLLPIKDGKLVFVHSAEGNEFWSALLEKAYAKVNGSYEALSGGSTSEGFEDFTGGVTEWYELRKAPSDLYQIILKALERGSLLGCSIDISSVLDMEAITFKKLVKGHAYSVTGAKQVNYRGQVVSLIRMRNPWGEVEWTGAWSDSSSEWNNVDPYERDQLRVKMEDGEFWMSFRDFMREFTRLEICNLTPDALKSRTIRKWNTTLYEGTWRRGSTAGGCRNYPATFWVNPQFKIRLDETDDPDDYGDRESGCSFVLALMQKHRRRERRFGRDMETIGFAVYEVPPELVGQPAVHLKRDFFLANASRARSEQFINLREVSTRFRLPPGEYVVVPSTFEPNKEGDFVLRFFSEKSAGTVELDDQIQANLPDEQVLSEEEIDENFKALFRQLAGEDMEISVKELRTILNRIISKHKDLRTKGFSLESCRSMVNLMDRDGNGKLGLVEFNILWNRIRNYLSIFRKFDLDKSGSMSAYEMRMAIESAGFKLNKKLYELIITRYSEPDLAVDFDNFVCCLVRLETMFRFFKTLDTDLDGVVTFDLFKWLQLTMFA
T2 sequence (P04632 1-268 partner): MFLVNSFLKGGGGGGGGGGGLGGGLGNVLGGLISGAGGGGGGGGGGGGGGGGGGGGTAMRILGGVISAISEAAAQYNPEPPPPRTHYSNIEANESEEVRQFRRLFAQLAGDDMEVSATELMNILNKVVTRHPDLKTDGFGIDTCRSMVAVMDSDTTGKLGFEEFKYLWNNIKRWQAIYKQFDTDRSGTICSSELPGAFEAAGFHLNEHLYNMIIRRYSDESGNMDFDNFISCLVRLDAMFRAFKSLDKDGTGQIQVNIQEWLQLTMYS
Excerpt: as §1

Cathepsin K [4] = target: T3, Cathepsin K (Homo sapiens, UniProt P43235); assay: in vitro fluorescence-based protease inhibition assay, cathepsin K; format: biochemical
T3 sequence (P43235 115-329): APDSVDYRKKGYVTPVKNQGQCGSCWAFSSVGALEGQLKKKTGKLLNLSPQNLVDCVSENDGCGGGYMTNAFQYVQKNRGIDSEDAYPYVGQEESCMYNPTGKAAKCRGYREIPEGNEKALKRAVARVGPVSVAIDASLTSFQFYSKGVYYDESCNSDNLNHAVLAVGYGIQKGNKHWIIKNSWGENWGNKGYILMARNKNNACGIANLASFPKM
Excerpt: as §1

Cathepsin L = Cathepsin L (Homo sapiens, UniProt P07711); assay: in vitro fluorescence-based protease inhibition assay, cathepsin L; format: biochemical
Chain of Cathepsin L (P07711 114-333, species assumed): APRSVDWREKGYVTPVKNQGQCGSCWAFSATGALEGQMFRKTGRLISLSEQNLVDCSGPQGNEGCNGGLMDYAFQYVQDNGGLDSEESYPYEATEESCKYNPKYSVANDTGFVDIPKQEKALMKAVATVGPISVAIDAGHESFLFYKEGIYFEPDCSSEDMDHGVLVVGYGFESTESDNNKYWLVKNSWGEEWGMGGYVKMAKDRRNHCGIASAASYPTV
Excerpt: as §1

[5] = Table 2, cathepsin S inhibitors
[6] = Table 3, cathepsin K inhibitors

Compound: CSCC[C@H](NC(=O)[C@H](CC(C)C)NC(=O)[C@H](CO)NC(=O)[C@H](CC(N)=O)NC(=O)[C@H](CCSC)NC(=O)[C@@H](NC(=O)[C@H](CCC(=O)O)NC(=O)[C@H](CCC(=O)O)NC(=O)[C@H](CO)NC(=O)[C@@H](N)[C@@H](C)O)C(C)C)C(=O)N[C@@H](CO)C(=O)N[C@@H](CO)C(=O)O [SEQ ID NO:14, TSEEVMNSLMSS, reference compound] (H-TSEEVMNSLMSS-OH)
cathepsin S inhibitory activity, in words (Cathepsin S [1]): did not demonstrate any intrinsic inhibitory activity

Ki (Cathepsin S [2]): > 100 µM
Compound: CSCC[C@H](NC(=O)[C@H](CC(C)C)NC(=O)[C@H](CO)NC(=O)[C@H](CC(N)=O)NC(=O)[C@H](CCSC)NC(=O)[C@@H](NC(=O)[C@H](CCC(=O)O)NC(=O)[C@H](CCC(=O)O)NC(=O)[C@H](CO)NC(=O)[C@@H](N)[C@@H](C)O)C(C)C)C(=O)N[C@@H](CO)C(=O)N[C@@H](CO)C(=O)O [SEQ ID NO:14, TSEEVMNSLMSS] (H-TSEEVMNSLMSS-OH; N-terminus and C-terminus assumed)

Ki (Cathepsin K [3]): > 100 µM
Compound: CSCC[C@H](NC(=O)[C@H](CCCCN)NC(=O)[C@H](CCC(N)=O)NC(=O)[C@@H](NC(=O)[C@@H](NC(=O)[C@H](CCC(=O)O)NC(=O)[C@H](CCC(=O)O)NC(=O)[C@@H](N)CO)C(C)C)C(C)C)C(=O)N[C@H](C(=O)NCC(=O)N[C@@H](CC(C)C)C(=O)O)[C@@H](C)O [SEQ ID NO:32, SEEVVQKMTGL] (H-SEEVVQKMTGL-OH; N-terminus and C-terminus assumed)

Ki (Calpain-1): > 100 µM
Compound: CC[C@H](C)[C@H](N)C(=O)N1CCC[C@H]1C(=O)N1CCC[C@H]1C(=O)N[C@@H](CCCCN)C(=O)N[C@@H](Cc1ccc(O)cc1)C(=O)N[C@@H](CCCNC(=N)N)C(=O)N[C@@H](CCC(=O)O)C(=O)N[C@@H](CC(C)C)C(=O)N[C@@H](CC(C)C)C(=O)N[C@@H](C)C(=O)O [SEQ ID NO:62, IPPKYRELLA] (H-IPPKYRELLA-OH; N-terminus and C-terminus assumed)

Ki (Calpain (Calpain-1); [5]): > 100 µM | Ki (Cathepsin K [4]; [5]): > 100 µM | Ki (Cathepsin L; [5]): 57.1 ± 1.24 µM
Compound: CSCC[C@@H]1NC(=O)[C@H](CC(C)C)NC(=O)[C@H](CO)NC(=O)[C@@H](NC(=O)[C@@H](NC(=O)[C@H](Cc2c[nH]c3ccccc23)NC(=O)[C@H](CCC(=O)O)NC(=O)[C@H](CO)NC(=O)[C@@H](N)[C@@H](C)O)C(C)C)CSCc2cccc(c2)CSC[C@@H](C(=O)N[C@@H](CO)C(=O)O)NC1=O [compound 20] (H-TSEWVCSLMCS-OH; linker 6-10 via mXylylene; N-terminus and C-terminus assumed)

Ki (Calpain (Calpain-1); [6]): > 100 µM | Ki (Cathepsin K [4]; [6]): > 100 µM | Ki (Cathepsin L; [6]): > 100 µM
Compound: CSCC[C@H](NC(=O)[C@H](CCCCN)NC(=O)[C@@H]1CSCc2cccc(c2)CSC[C@H](NC(=O)[C@@H](N)CO)C(=O)N[C@@H](CCC(=O)O)C(=O)N[C@@H](CO)C(=O)N[C@@H](C(C)C)C(=O)N1)C(=O)N[C@H](C(=O)NCC(=O)N[C@@H](CC(C)C)C(=O)O)[C@@H](C)O [compound 37] (H-SCESVCKMTGL-OH; linker 2-6 via mXylylene; N-terminus and C-terminus assumed)

Ki (Calpain (Calpain-1); Table 4, calpain inhibitors): 3.6 ± 1.7 µM | Ki (Cathepsin K [4]; Table 4, calpain inhibitors): > 100 µM | Ki (Cathepsin L; Table 4, calpain inhibitors): > 100 µM
Compound: CC[C@H](C)[C@H](NC(=O)[C@@H](NC(=O)[C@@H](NC(=O)[C@H](CCC(=O)O)NC(=O)[C@H](CCCNC(=N)N)NC(=O)[C@H](CCCCN)NC(=O)CNC(=O)[C@@H](N)CC(C)C)C(C)C)[C@@H](C)O)C(=O)N1CCC[C@H]1C(=O)N1CCC[C@H]1C(=O)N[C@@H](CCCCN)C(=O)N[C@@H](Cc1ccc(O)cc1)C(=O)N[C@H]1CSCc2cccc(c2)CSC[C@@H](C(=O)O)NC(=O)[C@H](CC(C)C)NC(=O)[C@H](CC(C)C)NC(=O)[C@H](CCC(=O)O)NC1=O [compound 67] (H-LGKREVTIPPKYCELLC-OH; linker 13-17 via mXylylene; N-terminus and C-terminus assumed)

cathepsin S inhibitory activity, in words (Cathepsin S [1]): increased inhibition | effect on cathepsin K (inhibition or activation), in words (Cathepsin K [4]): did not inhibit
Compound: TSEEVCSLMCS [SEQ ID NO:16]
potency on cathepsin L over cathepsin S, in words (Cathepsin L): much more potent inhibitor of cathepsin L over cathepsin S

specificity for cathepsin S over cathepsin L (Cathepsin S [1]): twice as specific
Compound: TWEWVCSLMCS [SEQ ID NO:23]

— patent US9670250B2, “Alpha-helical peptidomimetic inhibitors and methods using same” (The Trustees of the University of Pennsylvania, priority 2012, dated 2017)
